Source: the supplement of paper PMC10307832

Key:
Assay in all cases: relative viability (nuclei count vs DMSO), 5 days (fraction); higher = more cells survive
TGX 221 + Lapatinib = compound: CC1=CN2C(=O)C=C(N=C2C(=C1)C(C)NC3=CC=CC=C3)N4CCOCC4 [TGX 221] + CS(=O)(=O)CCNCc1ccc(-c2ccc3ncnc(Nc4ccc(OCc5cccc(F)c5)c(Cl)c4)c3c2)o1 [Lapatinib] (partner 2 µM)
In short: (§1)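 Values are medians from duplicate plates. Each reflects relative viability, defined as the nuclei count of treated wells over that of vehicle wells. Lung cancer cell lines in 1536-well plates were pin-tool dosed one day after seeding with one drug alone or with a fixed anchor-drug dose plus five library-drug doses (not always all listed) in √10 steps, then fixed, stained and imaged at 4× after 5 days.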

[1] = compound: C1=CC=C(C(=C1)C2=CC=C(C=C2)C3=CSC4=C3C(=C(C(=O)N4)C#N)O)O + CC(=O)c1c(C)c2cnc(Nc3ccc(N4CCNCC4)cn3)nc2n(C2CCCC2)c1=O [Palbociclib] (partner 0.5 µM)
In short: as §1

[2] = compound: C1=CC=C(C(=C1)C2=CC=C(C=C2)C3=CSC4=C3C(=C(C(=O)N4)C#N)O)O + CS(=O)(=O)N1CCN(Cc2cc3nc(-c4cccc5[nH]ncc45)nc(N4CCOCC4)c3s2)CC1 [Pictilisib] (partner 1 µM)
In short: as §1

TGX 221 + Olaparib = compound: CC1=CN2C(=O)C=C(N=C2C(=C1)C(C)NC3=CC=CC=C3)N4CCOCC4 [TGX 221] + O=C(c1cc(Cc2n[nH]c(=O)c3ccccc23)ccc1F)N1CCN(C(=O)C2CC2)CC1 [Olaparib] (partner 8 µM)
In short: as §1

Cell Line	relative viability (TGX 221 + Lapatinib; first compound 0.253 µM)	relative viability (TGX 221 + Lapatinib; first compound 0.8 µM)	relative viability (TGX 221 + Lapatinib; first compound 2.53 µM)	relative viability (TGX 221 + Lapatinib; first compound 8 µM)	relative viability ([1]; first compound 0.08 µM)	relative viability ([1]; first compound 0.253 µM)	relative viability ([1]; first compound 0.8 µM)	relative viability ([1]; first compound 2.53 µM)	relative viability ([1]; first compound 8 µM)	relative viability ([2]; first compound 0.08 µM)	relative viability ([2]; first compound 0.253 µM)	relative viability ([2]; first compound 0.8 µM)	relative viability ([2]; first compound 2.53 µM)	relative viability ([2]; first compound 8 µM)	relative viability (TGX 221 + Olaparib; first compound 0.08 µM)	relative viability (TGX 221 + Olaparib; first compound 0.253 µM)	relative viability (TGX 221 + Olaparib; first compound 0.8 µM)	relative viability (TGX 221 + Olaparib; first compound 2.53 µM)	relative viability (TGX 221 + Olaparib; first compound 8 µM)	relative viability (TGX 221 + Lapatinib; first compound 0.08 µM)
201T	1.05	0.98	1.02	0.943	0.381	0.361	0.362	0.38	0.387	0.646	0.697	0.652	0.584	0.846	0.837	0.834	0.821	0.834	0.777	–
A549	0.914	0.966	1.04	0.748	–	–	–	–	–	0.322	0.552	0.539	0.516	0.422	0.375	0.318	0.0939	0.301	0.422	0.939
A-427	0.992	1.01	0.991	1.05	0.551	0.535	0.504	0.553	0.543	0.577	0.751	0.683	0.75	0.886	0.635	0.704	0.714	0.625	0.71	0.998
ABC-1	1.14	1.12	1.24	1.09	0.615	0.921	0.804	0.591	0.433	0.678	0.881	0.949	0.59	0.548	0.8	0.86	0.908	0.781	0.876	0.987
BEN	0.719	0.506	0.68	0.605	0.582	0.514	0.481	0.474	0.507	0.547	0.597	0.437	0.547	0.428	1.16	0.887	1.05	0.882	1.01	0.721
CAL-12T	0.533	0.576	–	0.621	0.429	0.62	0.455	0.405	0.437	–	0.446	0.359	0.337	0.367	0.705	0.709	0.72	0.678	0.747	–
COR-L23	0.923	1.02	1.11	0.938	0.297	0.384	0.374	0.323	0.243	0.757	0.581	0.813	0.728	0.575	0.368	0.326	0.405	0.315	0.334	0.886
COR-L 105	0.333	0.394	0.394	0.325	0.431	0.403	0.419	0.401	0.42	0.387	0.525	0.428	0.417	0.433	0.649	0.696	0.712	0.584	0.557	0.409
Calu-6	0.916	1.04	1.17	0.962	–	–	–	–	–	0.959	0.967	1.05	0.988	0.812	0.55	0.513	0.549	0.536	0.512	0.929
ChaGo-K-1	–	–	–	–	0.839	0.913	1.01	1.01	0.836	0.387	0.634	0.554	0.747	0.829	0.399	0.387	0.374	0.359	0.426	–
EBC-1	0.212	0.203	0.226	0.234	–	–	–	–	–	0.353	0.429	0.346	0.343	0.368	0.664	0.697	0.616	0.676	0.55	0.203
EKVX	0.194	0.213	0.182	0.19	0.312	0.365	0.512	0.793	0.334	0.457	0.482	0.376	0.425	0.367	0.75	0.758	0.792	0.691	0.709	0.231
EMC-BAC-2	0.83	0.894	0.903	0.874	0.523	0.595	0.507	0.539	0.51	0.526	0.516	0.562	0.544	0.477	0.463	0.453	0.526	0.418	0.472	0.841
EPLC-272H	0.881	0.822	–	0.962	0.329	–	0.281	0.336	0.304	–	0.251	0.264	0.299	0.292	0.786	0.582	0.845	0.483	0.504	1.04
